# Assay results taken from US7754743B2, “Heteroarylcarbamoylbenzene derivatives” (Banyu Pharmaceutical Co., Ltd., priority 2003, dated 2010).
# Read-outs that look alike come from different tables or passages of the source.
# Target: T1, recombinant human liver GK (Homo sapiens, UniProt P35557)
# T1 construct: made in house; host or cells: E. coli
# T1 sequence (P35557 1-466 isoform P35557-2): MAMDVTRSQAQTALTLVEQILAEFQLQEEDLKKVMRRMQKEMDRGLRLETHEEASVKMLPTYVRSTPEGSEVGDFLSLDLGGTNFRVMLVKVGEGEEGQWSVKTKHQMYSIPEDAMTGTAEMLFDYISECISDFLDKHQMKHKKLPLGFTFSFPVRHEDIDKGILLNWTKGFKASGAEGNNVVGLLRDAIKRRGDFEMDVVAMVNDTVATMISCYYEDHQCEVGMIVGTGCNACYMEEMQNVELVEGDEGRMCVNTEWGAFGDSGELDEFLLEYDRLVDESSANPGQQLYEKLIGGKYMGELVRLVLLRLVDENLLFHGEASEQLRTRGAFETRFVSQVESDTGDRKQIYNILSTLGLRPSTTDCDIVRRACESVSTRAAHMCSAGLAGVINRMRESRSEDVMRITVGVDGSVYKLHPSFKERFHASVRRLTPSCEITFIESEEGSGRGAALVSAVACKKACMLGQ
# Assay: Glucokinase (GK) activation assay, G6PDH-coupled thio-NADH absorbance at 405 nm
# Type: biochemical
# Method: The glucokinase activity is the degree of activation of glucokinase, as determined not by direct measurement of glucose-6-phosphate, but by measurement of the amount of thio-NADH produced upon production of phosphogluconolactone from glucose-6-phosphate by the reporter enzyme glucose-6-phosphate dehydrogenase.
# The recombinant human liver GK used in this assay was expressed in E. coli as FLAG fusion protein, and it was purified by […] M2 AFFINITY GEL (Sigma).
# The assay was carried out using a flat-bottomed 96-well plate at 30° C. A 69 μl portion of assay buffer (25 mM Hepes Buffer: pH=7.2, 2 mM MgCl2, 1 mM ATP, 0.5 mM TNAD, 1 mM dithiothreitol) was dispensed, and either a DMSO solution of the compound or 1 μl of DMSO as a control was added. Next, 20 μl of an enzyme mixture (FLAG-GK, 20 U/ml G6PDH) precooled in ice bath was dispensed, and then 10 μl of 25 mM glucose was added as substrate and reaction was initiated (final glucose concentration=2.5 mM).
# FLAG-GK was added to produce an absorbance increment of from 0.05 to 0.1 after 5 minutes in the presence of 1% DMSO.
# The OD values were measured at each concentration of the evaluated compound, using the OD value of the DMSO control as 100%. The Emax (%) and EC50 (μM) values were calculated from the OD value at each concentration, and used as indices of the GK activating power of the compounds.
# [1] = final glucose concentration 2.5 mM, 30° C.
SMILES,Emax,EC50 [1],"Emax (OD value of DMSO control as 100%, final glucose concentration 2.5 mM, 30° C., read-out: Emax(%))"
"Cc1csc(NC(=O)c2cc(Oc3ccc(S(C)(=O)=O)cc3)cc(OC(C)C)c2)n1 [Production Example 1, 5-isopropoxy-3-(4-methanesulfonylphenoxy)-N-(4-methylthiazol-2-yl)-benzamide]",957%,250 nM,
"COC(=O)NCc1ccc(Oc2cc(OC(C)C)cc(C(=O)Nc3nccs3)c2)cc1 [Production Example 59, 5-isopropoxy-3-(4-methoxycarbonylaminomethylphenoxy)-N-thiazol-2-yl-benzamide]",,530 nM,936%
